Data as given in patent publication US20140228366A1, “HETEROARYL-SUBSTITUTED PYRAZOLOPYRIDINES AND USE THEREOF AS SOLUBLE GUANYLATE CYCLASE STIMULATORS” (BAYER INTELLECTUAL PROPERTY GMBH, priority 2011, published 2014).

Tests used:
[1] = molecular target: T1, recombinant guanylate cyclase reporter cell line (Rattus norvegicus, UniProt P19686+P20595); experiment: Effect on a recombinant guanylate cyclase reporter cell line; type: cell-based
T1 construct: expressed in transfected cells; host or cells: recombinant reporter cell line
T1 sequence (P19686 1-690): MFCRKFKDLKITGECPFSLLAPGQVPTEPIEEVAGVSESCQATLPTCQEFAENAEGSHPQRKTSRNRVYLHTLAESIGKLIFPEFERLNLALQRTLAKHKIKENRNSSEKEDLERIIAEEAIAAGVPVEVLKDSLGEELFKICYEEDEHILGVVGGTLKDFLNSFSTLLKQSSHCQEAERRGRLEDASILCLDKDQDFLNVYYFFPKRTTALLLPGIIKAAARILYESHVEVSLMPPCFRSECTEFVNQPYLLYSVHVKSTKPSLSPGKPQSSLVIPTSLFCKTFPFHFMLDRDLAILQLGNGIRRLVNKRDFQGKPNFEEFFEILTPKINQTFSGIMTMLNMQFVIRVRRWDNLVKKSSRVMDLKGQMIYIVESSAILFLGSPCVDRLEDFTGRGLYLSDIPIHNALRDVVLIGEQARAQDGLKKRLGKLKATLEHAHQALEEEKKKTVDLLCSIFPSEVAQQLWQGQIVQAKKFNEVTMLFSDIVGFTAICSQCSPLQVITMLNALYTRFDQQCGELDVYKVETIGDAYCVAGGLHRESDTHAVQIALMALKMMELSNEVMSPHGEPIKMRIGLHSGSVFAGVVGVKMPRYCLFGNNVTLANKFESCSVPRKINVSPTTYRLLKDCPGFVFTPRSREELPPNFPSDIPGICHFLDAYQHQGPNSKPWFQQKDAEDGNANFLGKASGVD
T1 sequence (P20595 1-619): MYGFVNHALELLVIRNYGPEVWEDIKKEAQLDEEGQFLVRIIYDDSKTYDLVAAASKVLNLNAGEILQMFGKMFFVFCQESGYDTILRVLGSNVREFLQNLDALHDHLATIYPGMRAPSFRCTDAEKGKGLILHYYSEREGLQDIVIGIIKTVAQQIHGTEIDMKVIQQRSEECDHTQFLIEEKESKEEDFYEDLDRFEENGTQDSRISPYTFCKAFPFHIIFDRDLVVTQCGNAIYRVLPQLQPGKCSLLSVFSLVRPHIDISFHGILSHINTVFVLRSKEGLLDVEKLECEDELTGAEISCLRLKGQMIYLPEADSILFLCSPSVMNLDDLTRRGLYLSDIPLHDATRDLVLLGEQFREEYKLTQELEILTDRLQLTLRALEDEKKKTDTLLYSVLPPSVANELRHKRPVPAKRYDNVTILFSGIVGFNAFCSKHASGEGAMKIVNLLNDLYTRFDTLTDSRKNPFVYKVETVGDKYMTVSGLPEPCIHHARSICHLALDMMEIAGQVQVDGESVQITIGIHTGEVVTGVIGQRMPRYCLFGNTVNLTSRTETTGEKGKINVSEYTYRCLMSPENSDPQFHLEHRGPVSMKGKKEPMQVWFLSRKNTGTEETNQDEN
Experimental: The cellular activity of the compounds according to the invention is determined using a recombinant guanylate cyclase reporter cell line, as described in F. Wunder et al., Anal. Biochem. 339, 104-112 (2005).

[2] = test system: rabbit aorta rings; experiment: Vasorelaxant effect in vitro (phenylephrine-contracted aorta rings); conditions: Oryctolagus cuniculus, phenylephrine contraction, concentration reducing control contraction by 50%
Experimental: Rabbits are stunned by a blow to the neck and exsanguinated. The aorta is removed, freed from adhering tissue and divided into rings of a width of 1.5 mm. The rings are placed individually under an initial tension in 5 ml organ baths with Krebs-Henseleit solution which is at 37° C., is gassed with carbogen and has the following composition (in each case mM): sodium chloride: 119; potassium chloride: 4.8; calcium chloride dihydrate: 1; magnesium sulphate heptahydrate: 1.4; potassium dihydrogenphosphate: 1.2; sodium bicarbonate: 25; glucose: 10. The contractile force is determined with Statham UC2 cells, amplified and digitalized using A/D transducers (DAS-1802 HC, Keithley Instruments Munich), and recorded in parallel on linear recorders. To produce a contraction, phenylephrine is added to the bath cumulatively in increasing concentration. After several control cycles, the substance to be investigated is added in each further run in increasing dosage in each case, and the height of the contraction achieved is compared with the height of the contraction reached in the last preceding run. This is used to calculate the concentration needed to reduce the magnitude of the control value by 50% (IC50 value). The standard administration volume is 5 μl; the DMSO content in the bath solution corresponds to 0.1%.

MEC (minimum effective concentration) [1] | IC50 [2] | Structure (SMILES)
10 µM | 1320 nM | CC1(C)C(=O)Nc2nc(-c3nn(Cc4ncccn4)c4ncc(F)cc34)nnc21 [Example 1, 3-[5-Fluoro-1-(pyrimidin-2-ylmethyl)-1H-pyrazolo[3,4-b]pyridin-3-yl]-7,7-dimethyl-5,7-dihydro-6H-pyrrolo[2,3-e][1,2,4]triazin-6-one]
0.3 µM | – | CC1(C)C(=O)Nc2nc(-c3nn(Cc4ncccc4F)c4ncc(F)cc34)nc(I)c21 [Example 4, 2-{5-Fluoro-1-[(3-fluoropyridin-2-yl)methyl]-1H-pyrazolo[3,4-b]pyridin-3-yl}-4-iodo-5,5-dimethyl-5,7-dihydro-6H-pyrrolo[2,3-d]pyrimidin-6-one]
3 µM | 627 nM | CC1(C)C(=O)Nc2nc(-c3nn(Cc4ncccc4F)c4ncc(F)cc34)nc(O)c21 [Example 5, 2-{5-Fluoro-1-[(3-fluoropyridin-2-yl)methyl]-1H-pyrazolo[3,4-b]pyridin-3-yl}-4-hydroxy-5,5-dimethyl-5,7-dihydro-6H-pyrrolo[2,3-d]pyrimidin-6-one]
0.3 µM | 116 nM | CC1(C)C(=O)Nc2nc(-c3nn(Cc4c(F)cncc4F)c4ncc(F)cc34)nc(N)c21 [Example 7, 4-Amino-2-{1-[(3,5-difluoropyridin-4-yl)methyl]-5-fluoro-1H-pyrazolo[3,4-b]pyridin-3-yl}-5,5-dimethyl-5,7-dihydro-6H-pyrrolo[2,3-d]pyrimidin-6-one]
3.0 µM | – | CC1(C)C(=O)Nc2nc(-c3nn(Cc4c(F)cncc4F)c4ncc(F)cc34)nc(O)c21 [Example 9, 2-{1-[(3,5-Difluoropyridin-4-yl)methyl]-5-fluoro-1H-pyrazolo[3,4-b]pyridin-3-yl}-4-hydroxy-5,5-dimethyl-5,7-dihydro-6H-pyrrolo[2,3-d]pyrimidin-6-one]
1.0 µM | 259 nM | CC1(C)C(=O)Nc2nc(-c3nn(Cc4c(F)cncc4F)c4ncc(F)cc34)ncc21 [Example 10, 2-[1-[(3,5-Difluoropyridin-4-yl)methyl]-5-fluoro-1H-pyrazolo[3,4-b]pyridin-3-yl]-5,5-dimethyl-5,7-dihydro-6H-pyrrolo[2,3-d]pyrimidin-6-one]
3.0 µM | 2540 nM | CC1(C)C(=O)Nc2nc(-c3nn(Cc4c(F)cncc4F)c4ncc(F)cc34)nnc21 [Example 11, 3-{1-[(3,5-Difluoropyridin-4-yl)methyl]-5-fluoro-1H-pyrazolo[3,4-b]pyridin-3-yl}-7,7-dimethyl-5,7-dihydro-6H-pyrrolo[2,3-e][1,2,4]triazin-6-one]
1.0 µM | 121 nM | CC1(C)C(=O)Nc2nc(-c3nn(Cc4ccncc4F)c4ncc(F)cc34)nc(N)c21 [Example 12, 4-Amino-2-[5-fluoro-1-[(3-fluoropyridin-4-yl)methyl]-1H-pyrazolo[3,4-b]pyridin-3-yl]-5,5-dimethyl-5,7-dihydro-6H-pyrrolo[2,3-d]pyrimidin-6-one]
1.0 µM | 207 nM | CC1(C)C(=O)Nc2nc(-c3nn(Cc4ccncc4F)c4ncc(F)cc34)ncc21 [Example 14, 2-{5-Fluoro-1-[(3-fluoropyridin-4-yl)methyl]-1H-pyrazolo[3,4-b]pyridin-3-yl}-5,5-dimethyl-5,7-dihydro-6H-pyrrolo[2,3-d]pyrimidin-6-one]
3.0 µM | 2230 nM | CC1(C)C(=O)Nc2nc(-c3nn(Cc4ccncc4F)c4ncc(F)cc34)nnc21 [Example 15, 3-{5-Fluoro-1-[(3-fluoropyridin-4-yl)methyl]-1H-pyrazolo[3,4-b]pyridin-3-yl}-7,7-dimethyl-5,7-dihydro-6H-pyrrolo[2,3-e][1,2,4]triazin-6-one]
1.0 µM | – | CC1(C)C(=O)Nc2nc(-c3nn(Cc4ncc(F)cc4F)c4ncc(F)cc34)nnc21 [Example 16, 3-{1-[(3,5-Difluoropyridin-2-yl)methyl]-5-fluoro-1H-pyrazolo[3,4-b]pyridin-3-yl}-7,7-dimethyl-5,7-dihydro-6H-pyrrolo[2,3-e][1,2,4]triazin-6-one]
0.1 µM | 196 nM | CC1(C)C(=O)Nc2nc(-c3nn(Cc4cncnc4)c4ncc(F)cc34)ncc21 [Example 18, 2-[5-Fluoro-1-(pyrimidin-5-ylmethyl)-1H-pyrazolo[3,4-b]pyridin-3-yl]-5,5-dimethyl-5,7-dihydro-6H-pyrrolo[2,3-d]pyrimidin-6-one]
0.1 µM | 361 nM | CC1(C)C(=O)Nc2nc(-c3nn(Cc4cncnc4)c4ncc(F)cc34)nnc21 [Example 19, 3-[5-Fluoro-1-(pyrimidin-5-ylmethyl)-1H-pyrazolo[3,4-b]pyridin-3-yl]-7,7-dimethyl-5,7-dihydro-6H-pyrrolo[2,3-e][1,2,4]triazin-6-one]
0.01 µM | – | CC1(C)C(=O)Nc2nc(-c3nn(Cc4sccc4F)c4ncc(F)cc34)nnc21 [Example 20, 3-{5-Fluoro-1-[(3-fluoro-2-thienyl)methyl]-1H-pyrazolo[3,4-b]pyridin-3-yl}-7,7-dimethyl-5,7-dihydro-6H-pyrrolo[2,3-e][1,2,4]triazin-6-one]
0.1 µM | 99 nM | CC1(C)C(=O)Nc2nc(-c3nn(Cc4cncnc4)c4ncc(F)cc34)nc(N)c21 [Example 21, 4-Amino-2-[5-fluoro-1-(pyrimidin-5-ylmethyl)-1H-pyrazolo[3,4-b]pyridin-3-yl]-5,5-dimethyl-5,7-dihydro-6H-pyrrolo[2,3-d]pyrimidin-6-one]
